Assay results from paper PMC6099735, “Piplartine Analogues and Cytotoxic Evaluation against Glioblastoma” (Molecules : A Journal of Synthetic Chemistry and Natural …, 2018).
Converted amounts (≈) assume the structure as drawn.

Key:
U87MG cells = assay: MTT cell viability assay, cytotoxic activity against proliferation of U87MG cells; format: cell-based, human; conditions: Homo sapiens, U-87 MG, MTT assay, 48 h exposure, 0.78-50 μg/mL, mean ± SEM of four experiments
Protocol: To evaluate the cytotoxic potential of compounds 2–19 against human U87MG, glioblastoma cells were used with several concentrations (0 to 50 μg/mL). After 48 h of incubation, cell viability rates were established by MTT and LDH analysis. IC50 values of each analogue were determined due to observed cell viability results after MTT assay. All tested analogues led to inhibition of cellular proliferation rates as compared to untreated cells in a clear concentration and compound type dependent manners, as illustrated in Table 1 and Figure 2.
Human glioblastoma (GBM) cell line U87MG (American Type Culture Collection; Rockville, MD, USA) within passage number 15–20 were grown in an incubator at 37 °C in a humidified atmosphere of 5% CO2. They were grown in Eagle’s Minimal Essential Medium from Sigma-Aldrich (Saint Louis, MO, USA), supplemented with 10% fetal bovine serum (FBS) and 100 μg/mL of each of the following antibiotics: penicillin and streptomycin [66].
To examine the effects of compounds on cell viability, an MTT assay was performed. U87MG cells were seeded at 1 × 10^4 cells per well in 96-well plate and allowed to attach for 24 h. Then the cells were exposed to different concentrations of 2–19 (0.78, 1.56, 3.125, 6.25, 12.5, 25 and 50 μg/mL) for 48 h. All the compounds were dissolved in dimethyl sulfoxide (DMSO), and diluted in serum-free culture medium. After the incubation, a 3-(4,5-dimethylthiazol-2-yl)-2,5-diphenyltetrazolium bromide (MTT) solution was applied to cell cultures according to the manufacturer’s instructions (Cayman Chemical Company®, Ann Arbor, MI, USA). After 3 h of incubation, MTT-formazan crystals were dissolved in DMSO and absorbance was measured at 570 nm on a plate reader and compared with control, untreated cells. The half-maximal inhibitory concentration values (IC50) were determined by MTT assay performed in four replicates.

[1] = tested on: BF16F10-Nex2 (murine melanoma); design: method as in PMID 25920262; conditions: MTT test; cited from earlier work
[2] = tested on: HeLa (human cervical carcinoma); design: method as in PMID 25920262; conditions: MTT test; cited from earlier work
[3] = tested on: HL-60 (human leukemic cell); design: method as in PMID 25920262; conditions: MTT test; cited from earlier work

Compound	melting point [°C]	IC50 (U87MG cells) [µg/mL]	other results
CC(=O)O[C@H]1C(=O)[C@@]2(C)[C@H]([C@H](OC(=O)c3ccccc3)[C@]3(O)C[C@H](OC(=O)[C@H](O)[C@@H](NC(=O)c4ccccc4)c4ccccc4)C(C)=C1C3(C)C)[C@]1(OC(C)=O)CO[C@@H]1C[C@@H]2O [paclitaxel, reference compound]	–	2.12 (≈ 2.48 µM)	–
CCCOC(=O)/C=C/c1cc(OC)c(OC)c(OC)c1 [Compound 4, (E)-Propyl-3-(3,4,5-trimethoxyphenyl)acrylate]	–	78.39 ± 0.69 (≈ 280 µM)	–
COc1cc(/C=C/C(=O)NCc2ccccc2)cc(OC)c1OC [Compound 15, (E)-N-Benzyl-3-(3,4,5-trimethoxyphenyl)acrylamide]	–	33.1 ± 0.41 (≈ 101 µM)	–
CCOC(=O)/C=C/c1cc(OC)c(OC)c(OC)c1 [Compound 3, (E)-Ethyl-3-(3,4,5-trimethoxyphenyl)acrylate]	–	100 ± 1.12 (≈ 376 µM)	–
COc1cc(/C=C/C(=O)OCCc2ccc(C)cc2)cc(OC)c1OC [Compound 13, (E)-4-Methylphenethyl 3-(3,4,5-Trimethoxyphenyl)acrylate]	–	30.3 ± 0.35 (≈ 85.1 µM)	–
piplaroxide	–	–	cytotoxic activity [1]: moderate activity; cytotoxic activity [2]: moderate activity; cytotoxic activity [3]: moderate activity
COc1cc(/C=C/C(=O)OC(C)C)cc(OC)c1OC [Compound 9, (E)-Isopropyl 3-(3,4,5-Trimethoxyphenyl)acrylate]	–	81.43 ± 0.55 (≈ 291 µM)	–
COc1cc(/C=C/C(=O)OCCc2ccccc2)cc(OC)c1OC [Compound 12, (E)-Phenethyl 3-(3,4,5-trimethoxyphenyl)acrylate]	–	24.8 ± 0.37 (≈ 72.4 µM)	–

Further lines, with some results ahead:

melting point [°C]	Compound	IC50 (U87MG cells) [µg/mL]	other results
203 to 205	COc1cc(/C=C/C(=O)NCc2ccc(C)cc2)cc(OC)c1OC [Compound 16, (E)-N-(4-Methylbenzyl)-3-(3,4,5-trimethoxyphenyl)acrylamide]	22.7 ± 0.34 (≈ 66.6 µM)	–
225 to 226	COc1ccc(CNC(=O)/C=C/c2cc(OC)c(OC)c(OC)c2)cc1 [Compound 17, (E)-N-(4-Methoxybenzyl)-3-(3,4,5-trimethoxyphenyl)acrylamide]	22.7 ± 0.39 (≈ 63.4 µM)	–
37 to 38	CCCCCCCCCCOC(=O)/C=C/c1cc(OC)c(OC)c(OC)c1 [Compound 7, (E)-Decyl-3-(3,4,5-trimethoxyphenyl)acrylate]	34.9 ± 0.54 (≈ 92.3 µM)	–
105 to 106	CCCCCOC(=O)/C=C/c1cc(OC)c(OC)c(OC)c1 [Compound 6, (E)-Pentyl 3-(3,4,5-trimethoxyphenyl)acrylate]	31.7 ± 0.48 (≈ 103 µM)	–
135 to 136	COC(=O)/C=C/c1cc(OC)c(OC)c(OC)c1 [Compound 2, (E)-Methyl-3-(3,4,5-trimethoxyphenyl)acrylate]	85.13 ± 0.78 (≈ 337 µM)	–
197 to 198	CCN(CC)C(=O)/C=C/c1cc(OC)c(OC)c(OC)c1 [Compound 19, (E)-N,N-Diethyl-3-(3,4,5-trimethoxyphenyl)acrylamide]	36.1 ± 0.44 (≈ 123 µM)	–
60 to 62	COCCOC(=O)/C=C/c1cc(OC)c(OC)c(OC)c1 [Compound 8, (E)-2-Methoxyethyl-3-(3,4,5-trimethoxyphenyl)acrylate]	50.1 ± 0.62 (≈ 169 µM)	–
145 to 146	COc1cc(/C=C/C(=O)Oc2cc(C(C)C)ccc2C)cc(OC)c1OC [Compound 11, (E)-Carvacryl-3-(3,4,5-trimethoxyphenyl)acrylate]	26.7 ± 0.47 (≈ 72.1 µM)	–
215 to 218	COc1cc(/C=C/C(=O)NCc2ccc(Cl)cc2)cc(OC)c1OC [Compound 18, (E)-N-(4-Chlorobenzyl)-3-(3,4,5-trimethoxyphenyl)acrylamide]	43.4 ± 0.48 (≈ 120 µM)	–
225 to 226	CCCCNC(=O)/C=C/c1cc(OC)c(OC)c(OC)c1 [Compound 14, (E)-N-Butyl-3-(3,4,5-trimethoxyphenyl)acrylamide]	13.2 ± 0.32 (≈ 45 µM)	–
74 to 75	CCCCOC(=O)/C=C/c1cc(OC)c(OC)c(OC)c1 [Compound 5, (E)-Butyl-3-(3,4,5-trimethoxyphenyl)acrylate]	57.9 ± 0.71 (≈ 197 µM)	–
